“Also recorded” adds a separate entry of the source.
Tests used:
p-AKT (Ser^473) = experiment: phosphorylated AKT by immunoblotting in MCF-7 cells; type: cell-based, human; conditions: EGCG 10 μM 24 h pretreatment, then Nic 10 μM or E2 10 nM 24 h
Protocol: To prepare protein samples, cells were washed once with ice-cold PBS and lysed on ice in cell lysis buffer (50 mM Tris-HCl, pH 8.0, 120 mM […], 0.5% Nonidet P-40, 100 mM sodium fluoride, and 200 μM sodium orthovanadate) containing protease inhibitors as described previously (Shih, Y. L., Liu, H. C., Chen, C. S., Hsu, C. H. et al., J. Agric. Food Chem. 2010, 58, 235-241). Protein (50 μg) from each sample was resolved by 12% SDS-polyacrylamide gel electrophoresis, transferred, and analyzed by Western blotting. Antibodies were purchased from the following vendors: anti-total AKT and protein A/G agarose beads were obtained from Santa Cruz Biotechnology (Santa Cruz, Calif., USA); anti-GAPDH and anti-α9-nAChR antibodies were from Abcam (Cambridge, UK); antiphospho AKT (Ser^473), anti-c-Jun, and anti-c-Fos were from Cell Signaling Technology (Beverly, Mass., USA). The secondary antibodies, alkaline phosphatase-coupled anti-mouse, and anti-rabbit IgG were purchased from Santa Cruz Biotechnology. The specific protein complexes were identified with the chromogenic substrates nitro blue tetrazolium, and 5-bromo-4-chloro-3-indolyl-phosphate from KPL (Gaithersburg, Md., USA). In each experiment, proteins were also probed with anti-GAPDH antibodies as a protein-loading control.

p53 = experiment: ChIP assay of p53 binding to the α9-nAChR promoter in MCF-7 cells; type: cell-based, human; conditions: EGCG 10 μM pretreatment, Nic 10 μM
MCF-7 cells [1] = experiment: Cell proliferation (MTT assay) in MCF-7 cells; type: cell-based, human
Protocol: (§1) Human mammary gland epithelial adenocarcinomas (MCF7, MDA-MB-231, AU-565, MDA-MB-453, and BT-483) and normal human mammary gland epithelial fibrocystic cell lines (MCF-10A and HBL-100) were purchased from ATCC (American Type Culture Collection, Manassas, Va., USA). MCF-7, MDA-MB-231, and MDA-MB-453 cells were maintained in DMEM, whereas BT-483 cells were maintained in RPMI-1640. Cell growth, proliferation, and viability were determined by the 3-(4,5-dimethylthiazol-2-yl)-2,5-diphenyltetrazolium (MTT) assay. The formazan product was measured by absorbance at 540 nm.

MCF-10A cells = experiment: Cell proliferation (MTT assay) in normal MCF-10A cells; type: cell-based, human; conditions: Nic 10 μM or EGCG 10-25 μM
Protocol: as §1

α9-nAChR = molecular target: T1, α9-nAChR (Homo sapiens, UniProt Q9UGM1); experiment: [^3H]-Nic equilibrium binding in MCF-7 cells
T1 construct: breast cancer cell proliferation induced by Nic could be mediated through endogenous α9-nAChR; endogenous in cells; host or cells: MCF-7 cell monolayers: wild type, scramble control (Sc) and α9-nAChR siRNA knockdown (Si) clones
T1 sequence (Q9UGM1 26-479 limits assumed): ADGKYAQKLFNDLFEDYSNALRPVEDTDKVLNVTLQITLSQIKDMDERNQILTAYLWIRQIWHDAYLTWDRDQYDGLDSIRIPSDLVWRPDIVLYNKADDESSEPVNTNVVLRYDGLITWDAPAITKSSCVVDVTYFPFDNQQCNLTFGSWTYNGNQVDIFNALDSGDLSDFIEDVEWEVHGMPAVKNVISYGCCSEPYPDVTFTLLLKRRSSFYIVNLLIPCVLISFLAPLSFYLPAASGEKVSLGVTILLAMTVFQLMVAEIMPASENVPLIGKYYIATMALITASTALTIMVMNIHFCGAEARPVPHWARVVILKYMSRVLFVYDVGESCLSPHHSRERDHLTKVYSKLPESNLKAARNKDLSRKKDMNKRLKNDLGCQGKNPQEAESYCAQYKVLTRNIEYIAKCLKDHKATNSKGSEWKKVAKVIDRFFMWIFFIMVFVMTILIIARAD
Protocol: L-(−)-[N-methyl-^3H]-Nic ([^3[H]-Nic) (71-75 Ci/mmol) was purchased from Dupont/NEN Research Products (Boston, Mass., USA), and free-base Nic (99% pure) was purchased from The Eastman Kodak (Rochester, N.Y., USA). To study the uptake of [^3H]-Nic in MCF-7 cell monolayers (2×10^6 cells/well), cells were rinsed three times with a buffer containing 140 mM NaCl, 5.4 mM KCl, 1.8 mM CaCl2, 0.8 mM Mg504, 5 mM glucose, and 25 mM Hepes/Tris (pH 7.4). […] Nonspecific binding was determined by the addition of […] Nic. Total binding was evaluated for each concentration in quintuplicate, and blanks were determined in triplicate. The uptake of [^3H]-Nic was halted by aspiration of the uptake medium and washing of the wells three times with ice-cold buffer. The cells were lysed in 1 mL of 0.5% Triton X-100, and aliquots of the cell lysates were transferred to scintillation vials to determine the incorporated radioactivity by scintillation counting. Inhibition studies were carried out by adding various concentrations of unlabeled compounds to the uptake medium.

MCF-7 cells [2] = experiment: Soft agar cloning assay (colony formation) of MCF-7 cells; type: cell-based, human; conditions: EGCG 10 μM, Nic 10 μM
Protocol: The base layer consisted of 0.9% low gelling point SeaPlaque agarose (Sigma, St. Louis, Mo., USA) in culture medium (Shih, Y. L., Liu, H. C., Chen, C. S., Hsu, C. H. et al., J. Agric. Food Chem. 2010, 58, 235-241). Soft agar, consisting of 0.4% SeaPlaque agarose in culture medium, was mixed with 1×10^4 MCF-7 cells and plated on top of the base layer in 60-mm diameter culture dishes. Soft agar cultures were maintained at 37° C. and counted for the appearance of colonies with a Leica DMI 4000B Microscope Imaging System (Leica Microsystems, Wetzlar, Germany).

For `O=C(O[C@@H]1Cc2c(O)cc(O)cc2O[C@@H]1c1cc(O)c(O)c(O)c1)c1cc(O)c(O)c(O)c1` [EGCG, (−)-epigallocatechin-3-gallate], the “pAKT protein expression induced by either E2 or Nic” value (p-AKT (Ser^473)) was “significantly inhibited”, the “p53 binding to the α9-nAChR promoter (−125 to 0)” value (p53) was “not affected” and the “Nic-induced cellular proliferation effects in (C) and (Sc) cells” value (MCF-7 cells [1]; EGCG 10 μM, 24 h pretreatment, then Nic 10 μM 24 h) was “reversed”. The Nic-stimulated proliferation (MCF-7 cells [1]; MCF-7, EGCG 10-25 μM, 24 h pretreatment, dose-dependent) was “blocked”, the “cell proliferation in Nic-treated α9-nAChR (Si) cells compared with Sc cells” value (MCF-7 cells [1]; combined treatment with EGCG 10 μM and Nic 10 μM) was “profoundly inhibited” and the “cell number in normal breast epithelial cells” value (MCF-10A cells) was “no changes”. The “[^3H]-Nic binding activity in α9-nAChR (Si) cells compared with Sc or wild-type cells” value (α9-nAChR; EGCG 10 μM 24 h pretreatment) was “profoundly inhibited”, the “inhibition of [^3H]-Nic binding activity in (Si) cells compared with Sc or wild-type cells” value (α9-nAChR; EGCG pretreatment) was > 90% and the “[^3H]-Nic binding activity, EGCG pretreated then washed group” value (α9-nAChR; MCF-7, EGCG 24 h, wash, then [^3H]-Nic 24 h) was “not significantly inhibited”. The “[^3H]-Nic binding activity, EGCG cotreated group” value (α9-nAChR; MCF-7, [^3H]-Nic + EGCG cotreatment 24 h) was “not significantly inhibited”, the “relative [^3H]-Nic binding activity, EGCG pretreated group” value (α9-nAChR; wild-type MCF-7, EGCG 10 μM 24 h, then [^3H]-Nic cotreatment 24 h) was “significantly blocked; also recorded: profoundly inhibited” and the “colony formation in α9-nAChR (Si) cells compared with (Sc) cells” value (MCF-7 cells [2]) was “profoundly inhibited”. For the same compound, the “formation of transformed colonies compared with Nic-treated cells” value (MCF-7 cells [2]; MCF-7) was “significantly inhibits”.
